Several values for one entry are separate records, joined by “and”; a condition that tells them apart may be missing. Equal entries are not always repeated. Where two headings read alike, the source gives them in different places.
Tests used:
[1] = system: S protein specific IgG antibody; format: in vivo, BALB/c mice; details: 14 days after the second immunization, LNP with S protein mRNA, FIG. 5
BALB/c mice = assay: Transfection efficiency: in vivo bioluminescence of luciferase mRNA encapsulated by different LNP; details: for Average fluorescence intensity, Leg (intramuscular injection) / Average fluorescence intensity, Liver (tail vein injection): 10 μg/mice; for Total photons number, Leg: intramuscular injection
Description: All animals were kept in adaptive feeding for more than 7 days before experiments, free to uptake food and drink water during experimental period, illumination 12/12 h alternating light and dark, room temperature was 20-26° C., humidity was 40-70%.
Experimental method: female BALB/c mice, encapsulated luciferase mRNA with different LNP by four different administrations which included subcutaneous injection (under the armpit), tail vein injection, intraperitoneal injection, intramuscular injection (the tibialis anterior muscle of mouse hind leg); 3, 6, 24, 48 h after administration, applied in vivo fluorescence imaging system (brand: Bruker, model: XTREME) for bioluminescence detection, the specific steps were as follows: substrate preparation: took appropriate amount of substrate Luciferin (brand: Promega) and added saline to make a 10 mg/ml solution, avoided light, injected 100 μl solution into each mouse intraperitoneally. […] Put the anesthetized mouse into machine, set the bioluminescence setting and took the photos, captured the photograph and then adjusted the upper and lower values of photograph, then collected data on the concentrated distribution of fluorescence (e.g., fluorescence intensity, average photons number, and total photons number) and processed data. Statistical analysis: the in vivo imaging outcome were shown in the fluorescence intensity or average of total photons number of different animal in the same tested group, which were used to judge whether the fluorescence intensity or total photon number of luciferase mRNA encapsulated by different LNP were high or low.
The fluorescence intensity and total photons number reflects the transfection efficiency of LNP, the value is higher, referring to the efficiency of delivering encapsulated substance into cell by LNP is higher.

[2] = format: physicochemical
[3] = system: T lymphocytes secreting INFγ; assay: ELISPOT count of T lymphocytes secreting INFγ after immunization with LNP-encapsulated SARS-CoV-2 S protein mRNA; format: in vivo, BALB/c mice; details: S protein (1 μg) stimulation, intramuscular Day 0 and Day 14, spleens after 7 days
[4] = LNP with SARS-CoV-2 S protein mRNA, Table 9
[5] = lipid nanoparticle of the ionizable lipid (ionizable lipid/phospholipid/PEG lipid/structural lipid 50/10/1.5/38.5 %) with mRNA, Table 1
[6] = lipid nanoparticle of the ionizable lipid with mRNA, Table 1

Compound	Average fluorescence intensity, Leg (intramuscular injection) (BALB/c mice; 3 h after administration)	Average fluorescence intensity, Liver (tail vein injection) (BALB/c mice; 3 h after administration)	Average fluorescence intensity, Leg (intramuscular injection) (BALB/c mice; 6 h after administration)	Average fluorescence intensity, Liver (tail vein injection) (BALB/c mice; 6 h after administration)	Average fluorescence intensity, Leg (intramuscular injection) (BALB/c mice; 24 h after administration)	Average fluorescence intensity, Liver (tail vein injection) (BALB/c mice; 24 h after administration)	Total photons number, Leg (BALB/c mice; 1 μg/ mice, 6 h)	Size (nm) [2, 5] [nm]	Encapsulated percentage (%) [2, 6] [%]	PDI [2, 6]	other results
CCCCCCCCCCCOC(=O)CCCCCN(CCO)CCCCCCCC(=O)OC(CCCCCCCC)CCCCCCCC [A33, reference compound]	1065.5	2841.8	1117.9	3144.6	418.8	100.0	2.35E+08	–	–	–	S protein specific IgG antibody titer [1]: higher titers of IgG antibodies; Total photons number, Leg (BALB/c mice; 1 μg/ mice, 3 h): 1.41E+08; Total photons number, Leg (BALB/c mice; 1 μg/ mice, 24 h): 5.84E+07; Total photons number, Leg (BALB/c mice; 5 μg/mice, 3 h): 5.20E+08; Total photons number, Leg (BALB/c mice; 5 μg/mice, 6 h): 4.62E+08; Total photons number, Leg (BALB/c mice; 5 μg/mice, 24 h): 1.63E+08; Encapsulated percentage (%) [2, 4]: 95%; PI [2, 4]: 0.104; Size (nm) [2, 4]: 76 nm; Elispot counted T lymphocytes secreting INFγ ([3]; dose 4 μg): 32 and 42; Elispot counted T lymphocytes secreting INFγ ([3]; dose 50 μg): 310 and 338
CCCCC/C=C/C/C=C/CCCCCCCCN(CCO)CCCCCCCC(=O)OC(COCCCCCC)COCCCCCC [A10]	–	–	–	–	–	–	3.17E+09	121.6	82.65	0.104	–
CCCCC/C=C/C/C=C/CCCCCCCCN(CCO)CCCCCC(=O)OCCCCCCCCCCC [A9]	461.4	198.9	432.0	252.7	178.3	14.6	–	129.4	93.35	0.120	–
CCCCC/C=C/C/C=C/CCCCCCCCN(CCO)CCCCCCCC(=O)OC(CCCCCCCC)CCCCCCCC [A8, reference compound]	1111	6850.3	2161.8	10174.4	1294.9	220.8	–	142.2	76.10	0.120	–
CCCCC/C=C/C/C=C/CCCCCCCCN(CCCO)CCCCCC(=O)OCCCCCCCCCCC [A12]	–	–	–	–	–	–	6.91E+08	119.3	86.53	0.083	–
CCCCCCCCCCCOC(=O)CCCCCN(CCO)CCCCCC(=O)OCCCCCCCCCCC [A3, reference compound]	60.3	12.1	69.8	11.9	35.9	13.5	–	140.6	81.47	0.120	–
CCCCC/C=C/C/C=C/CCCCCCCCN(CCCO)CCCCCCCC(=O)OC(CCCCCCCC)CCCCCCCC [A7]	1683.2	21013.1	2990.1	21315.5	1436.4	444.2	–	105.1	94.63	0.175	S protein specific IgG antibody titer [1]: higher titers of IgG antibodies; Encapsulated percentage (%) [2, 4]: 97%; PI [2, 4]: 0.060; Size (nm) [2, 4]: 79 nm; Elispot counted T lymphocytes secreting INFγ ([3]; dose 50 μg): 805 and 700
CCCCCCCCCCCOC(=O)CCCCCN(CCCO)CCCCCC(=O)OCCCCCCCCCCC [A6]	60.3	11.9	40.9	9.0	19.1	12.2	–	171.5	87.09	0.190	–
CCCCCCCCCCCOC(=O)CCCCCN(CCO)CCCCCCCC(=O)OCC(COCCCCCC)(COCCCCCC)COCCCCCC [A23]	–	–	–	–	–	–	–	74.63	97.41	0.054	Total photons number, Leg (BALB/c mice; 5 μg/mice, 3 h): 4.39E+09; Total photons number, Leg (BALB/c mice; 5 μg/mice, 6 h): 2.68E+09; Total photons number, Leg (BALB/c mice; 5 μg/mice, 24 h): 8.00E+08
